Where “and” joins values, the source holds several entries; their conditions need not be identical. Identical values can stand only once. Toxic doses and inconclusive results are not listed.
Tested on: BDF1 mice, P388 leukemia ip, median survival T/C
Experiment: NCI In Vivo Anticancer Drug Screen. Data for tumor model P388 Leukemia (intraperitoneal) in B6D2F1 (BDF1) mice
Details: endpoint: median survival time, higher = longer survival
Summary of the method: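 T/C = treated-group survival ÷ vehicle-control survival; tumour transplanted into mice before dosing.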

COc1cccc2c1C(=O)c1c(O)c3c(c(O)c1C2=O)C[C@@](O)(C(=O)CO)C[C@@H]3OC1CC(N)C(O)C(C)O1 (some centres undefined)
T/C (dose: 0.25 mg/kg/injection, schedule: Q03HX024 (ip), vehicle: saline): 230 % of control | T/C (dose: 0.37 mg/kg/injection, schedule: Q03HX024 (ip), vehicle: saline): 285 % of control | T/C (dose: 0.39 mg/kg/injection, schedule: Q01DX009 (ip), vehicle: water): 152 % of control | T/C (dose: 0.5 mg/kg/injection, schedule: Q01DX009 (ip), vehicle: saline): 250 % of control | T/C (dose: 0.5 mg/kg/injection, schedule: Q03HX024 (ip), vehicle: saline): 250 % of control | T/C (dose: 0.75 mg/kg/injection, schedule: Q03HX024 (ip), vehicle: saline): 240 % of control | T/C (dose: 0.8 mg/kg/injection, schedule: Q01DX004 (ip), vehicle: saline): 270 % of control | T/C (dose: 0.9 mg/kg/injection, schedule: Q01DX009 (ip), vehicle: clinical formulation): 263 % of control | T/C (dose: 1.0 mg/kg/injection, schedule: Q01DX001 (ip), vehicle: saline): 153 % of control | T/C (dose: 1.0 mg/kg/injection, schedule: Q01DX004 (ip), vehicle: saline): 536 % of control | T/C (dose: 1.0 mg/kg/injection, schedule: Q01DX009 (ip), vehicle: saline): 285 % of control | T/C (dose: 1.0 mg/kg/injection, schedule: Q03HX008 (ip), vehicle: water): 250 % of control | T/C (dose: 1.0 mg/kg/injection, schedule: Q03HX016 (ip), vehicle: saline): 290 % of control | T/C (dose: 1.0 mg/kg/injection, schedule: Q04DX003 (ip), vehicle: saline): 106 % of control | T/C (dose: 1.0 mg/kg/injection, schedule: Q04DX009 (ip), vehicle: water): 117 % of control | T/C (dose: 1.2 mg/kg/injection, schedule: Q01DX009 (ip), vehicle: saline): 304 % of control | T/C (dose: 1.2 mg/kg/injection, schedule: Q03HX008 (ip), vehicle: saline): 539 % of control | T/C (dose: 1.3 mg/kg/injection, schedule: Q01DX009 (ip), vehicle: clinical formulation): 473 % of control | T/C (dose: 1.5 mg/kg/injection, schedule: Q01DX009 (ip), vehicle: saline): 361 % of control | T/C (dose: 1.5 mg/kg/injection, schedule: Q03HX024 (sc), vehicle: saline): 95 % of control | T/C (dose: 1.56 mg/kg/injection, schedule: Q01DX009 (ip), vehicle: water): 224 % of control | T/C (dose: 1.6 mg/kg/injection, schedule: Q01DX004 (ip), vehicle: saline): 423 % of control | T/C (dose: 1.73 mg/kg/injection, schedule: Q04DX003 (ip), vehicle: water): 256 % of control | T/C (dose: 1.8 mg/kg/injection, schedule: Q01DX009 (ip), vehicle: saline): 295 % of control and 306 % of control | T/C (dose: 1.8 mg/kg/injection, schedule: Q03HX008 (ip), vehicle: saline): 539 % of control | T/C (dose: 1.8 mg/kg/injection, schedule: Q04DX003 (ip), vehicle: saline): 122 % of control | T/C (dose: 1.8 mg/kg/injection, schedule: Q## X003 (ip), vehicle: saline): 122 % of control | T/C (dose: 2.0 mg/kg/injection, schedule: Q01DX009 (ip), vehicle: clinical formulation): 247 % of control | T/C (dose: 2.0 mg/kg/injection, schedule: Q01DX009 (ip), vehicle: saline): 238 % of control and 250 % of control | T/C (dose: 2.0 mg/kg/injection, schedule: Q03HX008 (ip), vehicle: water): 254 % of control | T/C (dose: 2.0 mg/kg/injection, schedule: Q04DX003 (ip), vehicle: saline): 122 % of control | T/C (dose: 2.0 mg/kg/injection, schedule: Q06HX004 (ip), vehicle: water): 300 % of control | T/C (dose: 2.16 mg/kg/injection, schedule: Q04DX003 (ip), vehicle: water): 247 % of control | T/C (dose: 2.5 mg/kg/injection, schedule: Q01DX009 (ip), vehicle: saline): 119 % of control | T/C (dose: 2.5 mg/kg/injection, schedule: Q01DX009 (sc), vehicle: saline): 115 % of control | T/C (dose: 2.5 mg/kg/injection, schedule: Q04DX003 (ip), vehicle: water): 237 % of control | T/C (dose: 2.7 mg/kg/injection, schedule: Q01DX009 (ip), vehicle: saline): 124 % of control | T/C (dose: 2.7 mg/kg/injection, schedule: Q03HX008 (ip), vehicle: saline): 92 % of control | T/C (dose: 2.7 mg/kg/injection, schedule: Q04DX003 (ip), vehicle: saline): 122 % of control | T/C (dose: 2.7 mg/kg/injection, schedule: Q## X003 (ip), vehicle: saline): 122 % of control | T/C (dose: 2.88 mg/kg/injection, schedule: Q04DX003 (ip), vehicle: water): 241 % of control | T/C (dose: 3.0 mg/kg/injection, schedule: Q01DX009 (ip), vehicle: clinical formulation): 473 % of control | T/C (dose: 3.0 mg/kg/injection, schedule: Q01DX009 (ip), vehicle: saline): 104 % of control | T/C (dose: 3.0 mg/kg/injection, schedule: Q01DX009 (sc), vehicle: saline): 100 % of control | T/C (dose: 3.0 mg/kg/injection, schedule: Q03HX008 (ip), vehicle: water): 243 % of control | T/C (dose: 3.0 mg/kg/injection, schedule: Q04DX004 (ip), vehicle: saline): 112 % of control | T/C (dose: 3.5 mg/kg/injection, schedule: Q01DX009 (ip), vehicle: saline): 90 % of control | T/C (dose: 3.5 mg/kg/injection, schedule: Q01DX009 (sc), vehicle: saline): 100 % of control | T/C (dose: 3.6 mg/kg/injection, schedule: Q01DX004 (ip), vehicle: saline with Tween-80): 123 % of control | T/C (dose: 3.6 mg/kg/injection, schedule: Q04DX003 (ip), vehicle: saline + alcohol): 232 % of control | T/C (dose: 3.6 mg/kg/injection, schedule: Q04DX003 (ip), vehicle: water): 240 % of control and 259 % of control | T/C (dose: 4.0 mg/kg/injection, schedule: Q03HX008 (ip), vehicle: saline): 541 % of control | T/C (dose: 4.0 mg/kg/injection, schedule: Q04DX003 (sc), vehicle: saline): 150 % of control | T/C (dose: 4.0 mg/kg/injection, schedule: Q06HX004 (ip), vehicle: water): 545 % of control | T/C (dose: 4.4 mg/kg/injection, schedule: Q01DX001 (ip), vehicle: saline): 150 % of control | T/C (dose: 4.5 mg/kg/injection, schedule: Q01DX009 (ip), vehicle: clinical formulation): 100 % of control | T/C (dose: 4.5 mg/kg/injection, schedule: Q04DX003 (ip), vehicle: saline): 539 % of control and 571 % of control | T/C (dose: 4.8 mg/kg/injection, schedule: Q04DX003 (ip), vehicle: water): 224 % of control and 247 % of control | T/C (dose: 5.0 mg/kg/injection, schedule: Q01DX001 (ip), vehicle: saline): 252 % of control | T/C (dose: 5.0 mg/kg/injection, schedule: Q03HX008 (ip), vehicle: water): 89 % of control | T/C (dose: 5.0 mg/kg/injection, schedule: Q07DX006 (ip), vehicle: saline): 245 % of control | T/C (dose: 5.5 mg/kg/injection, schedule: Q04DX003 (ip), vehicle: saline): 571 % of control | T/C (dose: 5.5 mg/kg/injection, schedule: Q04DX003 (sc), vehicle: saline): 150 % of control | T/C (dose: 6.0 mg/kg/injection, schedule: Q01DX001 (ip), vehicle: saline): 516 % of control | T/C (dose: 6.0 mg/kg/injection, schedule: Q04DX003 (ip), vehicle: saline + alcohol): 270 % of control | T/C (dose: 6.0 mg/kg/injection, schedule: Q04DX003 (ip), vehicle: saline): 225 % of control and 153 % of control | T/C (dose: 6.0 mg/kg/injection, schedule: Q04DX003 (ip), vehicle: water): 250 % of control and 106 % of control and 123 % of control | T/C (dose: 6.0 mg/kg/injection, schedule: Q## X003 (ip), vehicle: saline): 153 % of control | T/C (dose: 6.6 mg/kg/injection, schedule: Q01DX001 (iv), vehicle: saline): 109 % of control | T/C (dose: 6.67 mg/kg/injection, schedule: Q04DX003 (ip), vehicle: saline): 271 % of control | T/C (dose: 7.5 mg/kg/injection, schedule: Q01DX001 (ip), vehicle: saline): 295 % of control | T/C (dose: 7.5 mg/kg/injection, schedule: Q01DX001 (sc), vehicle: saline): 150 % of control | T/C (dose: 7.5 mg/kg/injection, schedule: Q07DX006 (ip), vehicle: saline): 409 % of control | T/C (dose: 8.0 mg/kg/injection, schedule: Q04DX009 (ip), vehicle: water): 150 % of control | T/C (dose: 8.4 mg/kg/injection, schedule: Q03HX008 (ip), vehicle: water): 83 % of control | T/C (dose: 10.0 mg/kg/injection, schedule: Q01DX001 (ip), vehicle: water): 268 % of control | T/C (dose: 10.0 mg/kg/injection, schedule: Q01DX001 (iv), vehicle: saline): 117 % of control | T/C (dose: 10.0 mg/kg/injection, schedule: Q07DX006 (ip), vehicle: saline): 313 % of control | T/C (dose: 12.0 mg/kg/injection, schedule: Q01DX001 (ip), vehicle: saline): 486 % of control and 516 % of control (2×) | T/C (dose: 15.0 mg/kg/injection, schedule: Q01DX001 (iv), vehicle: saline): 235 % of control and 312 % of control | T/C (dose: 16.0 mg/kg/injection, schedule: Q04DX009 (ip), vehicle: water): 108 % of control | T/C (dose: 16.7 mg/kg/injection, schedule: Q01DX001 (ip), vehicle: water): 112 % of control | T/C (dose: 20.0 mg/kg/injection, schedule: Q01DX001 (ip), vehicle: saline): 104 % of control | T/C (dose: 20.0 mg/kg/injection, schedule: Q01DX001 (ip), vehicle: water): 79 % of control
